Earlier results in patent publication US20210060105A1, “GINKGO BILOBA EXTRACT COMPOSITE FORMULATION AND USE OF THE SAME” (priority 2019, published 2021).

How the values were obtained:
[1] = increased from the original 49.7±3.6 mg/dL

CC1=C(/C=C/C(C)=C/C=C/C(C)=C/C=C/C=C(C)/C=C/C=C(C)/C=C/C2=C(C)C(=O)[C@@H](O)CC2(C)C)C(C)(C)C[C@H](O)C1=O [Astaxanthin, astaxanthin]
HDL in vivo after astaxanthin [1]: 66.5 ± 5.1 mg/dL | antioxidant ability relative to vitamin E (compared with vitamin E): 550 times | antioxidant ability relative to β-carotene (compared with β-carotene): 10 times
